“And” between values parts separate entries of the source, which are not always exact repeats. Equal entries are not always repeated.
Tested on: CA3–CA1 Schaffer collateral pathway LTP
Assay: LTP at CA3–CA1 synapse, field recordings in acute hippocampal slices of WT mice
Format: cell-based, mouse
Conditions: for LTP quantification (fEPSP slope, last 10 min post-HFS, normalized to baseline): 15 min before HFS to 5 min after

NCCNc1cccc(-c2ccnc3[nH]c4ccccc4c23)c1 [AS283]
LTP quantification (fEPSP slope, last 10 min post-HFS, normalized to baseline) (AS283 10uM): 152.979% and 135.393% and 153.277% | fEPSP slope (normalized to baseline) (AS283 10uM, Time (min) -4): 104.452% and 102.587% and 97.9392% | fEPSP slope (normalized to baseline) (AS283 10uM, Time (min) -5): 97.455% and 97.2289% and 102.244% | fEPSP slope (normalized to baseline) (AS283 10uM, Time (min) -6): 99.4541% and 99.1179% and 105.524% | fEPSP slope (normalized to baseline) (AS283 10uM, Time (min) -7): 101.753% and 102.819% and 102.999% | fEPSP slope (normalized to baseline) (AS283 10uM, Time (min) -8): 95.5559% and 104.449% and 104.231% | fEPSP slope (normalized to baseline) (AS283 10uM, Time (min) -9): 92.9571% and 97.0204% and 97.7789% | fEPSP slope (normalized to baseline) (AS283 10uM, Time (min) -10): 99.8539% and 98.6506% and 100.547% | fEPSP slope (normalized to baseline) (AS283 10uM, Time (min) -11): 103.952% and 101.834% and 101.778% | fEPSP slope (normalized to baseline) (AS283 10uM, Time (min) -12): 101.553% and 101.652% and 98.229% | fEPSP slope (normalized to baseline) (AS283 10uM, Time (min) -13): 102.353% and 99.9177% and 99.6311% | LTP quantification (fEPSP slope, last 10 min post-HFS, normalized to baseline) (AS283 30uM): 160.389% and 108.532% and 181.434% and 162.892% and 172.846% and 114.329% and 178.329% | fEPSP slope (normalized to baseline) (AS283 30uM, Time (min) -4): 104.315% and 98.2615% and 101.701% and 97.3586% and 99.2226% and 91.7266% and 101.169% | fEPSP slope (normalized to baseline) (AS283 30uM, Time (min) -5): 101.784% and 110.1% and 99.6307% and 92.306% and 111.307% and 95.4361% and 105.648% | fEPSP slope (normalized to baseline) (AS283 30uM, Time (min) -6): 100.097% and 110.1% and 101.96% and 97.1642% and 103.039% and 95.0989% and 110.591% | fEPSP slope (normalized to baseline) (AS283 30uM, Time (min) -7): 104.877% and 108.522% and 113.432% and 111.35% and 97.9505% and 103.53% and 108.737% | fEPSP slope (normalized to baseline) (AS283 30uM, Time (min) -8): 104.034% and 98.6561% and 118.004% and 96.7756% and 91.5901% and 101.506% and 110.436% | fEPSP slope (normalized to baseline) (AS283 30uM, Time (min) -9): 106.283% and 106.154% and 107.653% and 91.3344% and 103.039% and 101.844% and 106.575% | fEPSP slope (normalized to baseline) (AS283 30uM, Time (min) -10): 103.19% and 102.997% and 101.442% and 97.5529% and 105.583% and 95.4361% and 107.965% | fEPSP slope (normalized to baseline) (AS283 30uM, Time (min) -11): 100.66% and 97.0777% and 100.58% and 104.937% and 103.675% and 93.0755% and 112.753% | fEPSP slope (normalized to baseline) (AS283 30uM, Time (min) -12): 100.379% and 102.602% and 99.6307% and 99.8848% and 96.6784% and 98.4712% and 119.858% | fEPSP slope (normalized to baseline) (AS283 30uM, Time (min) -13): 101.784% and 99.0508% and 93.2474% and 96.5813% and 96.6784% and 98.8084% and 114.606% | effect on LTP induction in WT mice (AS283 10 or 30 µM): failed to block

Reference: article PMC10482691, “LTP induction by structural rather than enzymatic functions of CaMKII” (Nature, 2023)
